Results reported in US20050208496A1, “Methods of testing for bronchial asthma or chronic obstructive pulmonary disease” (Genox Research, Inc., priority 2002, published 2005).
Where “and” joins values, the source holds several entries; their conditions need not be identical. Equal values may be shown once.

Tested on: mouse counterpart genes
Experiment: Mouse GeneChip (MG-U74A to MG-U74C) analysis of lung and trachea of the OVA antigen-exposed bronchial hypersensitivity model, S-Sal group versus S-OVA group
Format: in vivo
[1] = S-Sal vs S-OVA group, 2nd, P/A: P
[2] = S-Sal vs S-OVA group, 3rd, P/A: A
[3] = S-Sal vs S-OVA group, 3rd, P/A: P

ovalbumin [OVA antigen, ovalbumin antigen used for sensitization and inhalation to induce bronchial hypersensitivity in mice]
0.909: Fold Change, DNA segment. Chr 16. ERATO Doi 269, expressed (mouse probe 97821_at) (mouse, in vivo) | Fold Change, DNA segment. Chr 16. ERATO Doi 269, expressed (mouse probe 97822_at) (mouse, in vivo) | Fold Change, DnaJ (Hsp40) homolog, subfamily A, member 1 (mouse Probe ID 97261_at) (mouse, in vivo) | Fold Change, SAM domain and HD domain, 1 (mouse Probe ID 103080_at) (mouse, in vivo) | Fold Change, cathepsin C (mouse Probe ID 101020_at) (mouse, in vivo) | Fold Change, dual specificity phosphatase 14 (mouse Probe ID 171285_at) (mouse, in vivo) | Fold Change, expressed sequence AI463430 (mouse Probe ID 112883_at) (mouse, in vivo) | Fold Change, expressed sequence AI839647 (mouse Probe ID 110839_at) (mouse, in vivo) | Fold Change, growth arrest and DNA-damage-inducible 45 gamma (mouse Probe ID 109336_at) (mouse, in vivo) | Fold Change, hydroxysteroid (17-beta) dehydrogenase 2 (mouse Probe ID 101891_at) (mouse, in vivo) | Fold Change, membrane-associated protein 17 (mouse probe 96935_at) (mouse, in vivo) | Fold Change, neurotrophic tyrosine kinase, receptor type 1 (mouse probe 110116_at) (mouse, in vivo) | Fold Change, osteoblast specific factor 2 (fasciclin I-like) (mouse Probe ID 92593_at) (mouse, in vivo) | Fold Change, procollagen lysine, 2-oxoglutarate 5-dioxygenase 2 (mouse Probe ID 114376_at) (mouse, in vivo) | Fold Change, reticulocalbin 2 (mouse Probe ID 93281_at) (mouse, in vivo) | Fold Change, thioredoxin reductase 1 (mouse Probe ID 99985_at) (mouse, in vivo)
2.2: Fold Change, neutrophil cytosolic factor 2 (mouse Probe ID 102326_at) [1]
0.769: Fold Change, A kinase (PRKA) anchor protein 10 (mouse probe 163162_at) (mouse, in vivo) | Fold Change, MP and activin membrane-bound inhibitor, homolog (Xanopus laevis) (mouse probe 162531_at) (mouse, in vivo) | Fold Change, RIKEN cDNA 6330404C01 gene (mouse Probe ID 166590_at) (mouse, in vivo) | Fold Change, a disintegrin and metalloprotease domain 8 (mouse probe 103024_at) (mouse, in vivo) | Fold Change, acid phosphatase 5, tartrate resistant (mouse Probe ID 98859_at) (mouse, in vivo) | Fold Change, claudin 5 (mouse probe 104516_at) (mouse, in vivo) | Fold Change, decay accelerating factor 1 (mouse probe 164905_r_at) (mouse, in vivo) | Fold Change, fructose bisphosphatase 1 (mouse Probe ID 96918_at) (mouse, in vivo) | Fold Change, interleukin 1 receptor-like 1 (mouse probe 98501_at) (mouse, in vivo) | Fold Change, matrix metalloproteinase 7 (mouse probe 162318_r_at) (mouse, in vivo) | Fold Change, polycystic kidney disease 2 (mouse probe 100951_at) (mouse, in vivo) | Fold Change, transforming growth factor, beta 2 (mouse Probe ID 93300_at) (mouse, in vivo) | Fold Change, transmembrane 4 superfamily member 8 (mouse Probe ID 97912_at) (mouse, in vivo) | Fold Change, zinc finger protein 263 (mouse Probe ID 109154_at) (mouse, in vivo)
0.909 and 0.769: Fold Change, ESTs AI844322 (mouse Probe ID 110469_at) (mouse, in vivo) | Fold Change, cholesterol 25-hydroxylase (mouse probe 133666_at) (mouse, in vivo) | Fold Change, thioredoxin reductase 1 (mouse Probe ID 161284_r_at) (mouse, in vivo)
1.6: Fold Change, signal transducer and activator of transcription 1 (mouse Probe ID 101465_at) [1]
1.4: Fold Change, RIKEN cDNA A2301D9K23 gene (mouse Probe ID 163453_at) [2] | Fold Change, ubiquitin D (mouse Probe ID 168938_r_at) [2] | Fold Change, DEAD (aspartate-glutamate-alanine-aspartate) box polypeptide 5 (mouse Probe ID 113899_at) [3]
0.667: Fold Change, ubiquitin D (mouse Probe ID 169362_f_at) [2]
1.1: Fold Change, cathepsin C (mouse Probe ID 101019_at) [1] | Fold Change, dual specificity phosphatase 14 (mouse Probe ID 162702_at) [1] | Fold Change, dual specificity phosphatase 14 (mouse Probe ID 165144_r_at) [2] | Fold Change, keratin complex 1, acidic, gene 16 (mouse Probe ID 103589_at) [2] | Fold Change, ribosomal protein S16 (mouse Probe ID 169860_r_at) [2] | Fold Change, DEAD (aspartate-glutamate-alanine-aspartate) box polypeptide 5 (mouse Probe ID 93493_at) [3] | Fold Change, fatty acid binding protein 4, adipocyte (mouse Probe ID 100567_at) [3] | Fold Change, signal transducer and activator of transcription 1 (mouse Probe ID 114635_at) [3]
1: Fold Change, integrin-associated protein (mouse Probe ID 103611_at) [1] | Fold Change, ribosomal protein S16 (mouse Probe ID 97647_at) [1] | Fold Change, RIKEN cDNA 4933419D20 gene (mouse Probe ID 112237_at) [3] | Fold Change, cathepsin C (mouse Probe ID 101019_at) [3] | Fold Change, dual specificity phosphatase 14 (mouse Probe ID 162702_at) [3] | Fold Change, integrin-associated protein (mouse Probe ID 103611_at) [3] | Fold Change, ribosomal protein S16 (mouse Probe ID 97647_at) [3] | Fold Change, signal transducer and activator of transcription 1 (mouse Probe ID 101465_at) [3]
1.3: Fold Change, RAS guanyl releasing protein 1 (mouse Probe ID 98307_at) [2] | Fold Change, nuclear factor, interleukin 3, regulated (mouse Probe ID 164758_i_at) [2] | Fold Change, ubiquitin fusion degradation 1 like (mouse Probe ID 93303_at) [3] | Fold Change, zinc finger protein 263 (mouse Probe ID 109154_at) [3]
0.714 and 0.769: Fold Change, a disintegrin and metalloprotease domain 28 (mouse probe 101723_r_at) (mouse, in vivo)
1.5: Fold Change, cytokine inducible SH2-containing protein 1 (mouse Probe ID 92832_at) [3] | Fold Change, expressed sequence AI463430 (mouse Probe ID 112883_at) [3]
8.7: Fold Change, acid phosphatase 5, tartrate resistant (mouse Probe ID 162543_r_at) [2]
0.455: Fold Change, serine (or cysteine) proteinase inhibitor, clade B (ovalbumin), member 2 (mouse Probe ID 92978_s_at) [1]
2.3: Fold Change, dual specificity phosphatase 14 (mouse Probe ID 171285_at) [2]
1.7: Fold Change, serine (or cysteine) proteinase inhibitor, clade B (ovalbumin), member 2 (mouse Probe ID 92978_s_at) [2] | Fold Change, acid phosphatase 5, tartrate resistant (mouse Probe ID 98859_at) [3]
2.4: Fold Change, RAS guanyl releasing protein 1 (mouse Probe ID 167498_i_at) [2]
0.714: Fold Change, RIKEN cDNA A2301D9K23 gene (mouse Probe ID 166475_r_at) (mouse, in vivo) | Fold Change, cadherin 6 (mouse Probe ID 101730_at) (mouse, in vivo) | Fold Change, dipeptidylpeptidase 4 (mouse Probe ID 92634_at) (mouse, in vivo) | Fold Change, fatty acid binding protein 4, adipocyte (mouse Probe ID 100567_at) (mouse, in vivo) | Fold Change, fetuin beta (mouse Probe ID 108524_at) (mouse, in vivo) | Fold Change, hydroxysteroid (17-beta) dehydrogenase 2 (mouse Probe ID 166141_i_at) (mouse, in vivo) | Fold Change, intercellular adhesion molecule (mouse Probe ID 96752_at) (mouse, in vivo) | Fold Change, interferon gamma inducible protein 30 (mouse probe 164423_at) (mouse, in vivo) | Fold Change, low density lipoprotein receptor-related protein associated protein 1 (mouse probe 100086_at) (mouse, in vivo) | Fold Change, low density lipoprotein receptor-related protein associated protein 1 (mouse probe 161988_f_at) (mouse, in vivo) | Fold Change, nitric oxide synthase 2, inducible, macrophage (mouse Probe ID 104420_at) (mouse, in vivo) | Fold Change, nuclear factor, interleukin 3, regulated (mouse Probe ID 164758_i_at) (mouse, in vivo) | Fold Change, phosphotidylinositol transfer protein, beta (mouse probe 102696_s_at) (mouse, in vivo) | Fold Change, serine (or cysteine) proteinase inhibitor, clade B (ovalbumin), member 6 (mouse Probe ID 96060_at) (mouse, in vivo) | Fold Change, ubiquitin D (mouse Probe ID 92715_at) (mouse, in vivo)
0.625: Fold Change, DNA-damage inducible transcript 3 (mouse Probe ID 101429_at) [2] | Fold Change, keratin complex 1, acidic, gene 16 (mouse Probe ID 164428_i_at) [2] | Fold Change, ubiquitin D (mouse Probe ID 92715_at) [2]
0.833: Fold Change, expressed sequence AI839647 (mouse Probe ID 110839_at) [1] | Fold Change, reticulocalbin 2 (mouse Probe ID 93281_at) [1] | Fold Change, zinc finger protein 263 (mouse Probe ID 109154_at) [1] | Fold Change, RIKEN cDNA 4933419D20 gene (mouse Probe ID 97442_at) [3]
0.769 and 0.909: Fold Change, hydroxysteroid (17-beta) dehydrogenase 2 (mouse Probe ID 169670_at) (mouse, in vivo) | Fold Change, sialyltransferase 1 (beta-galactoside alpha-2,6-sialyltransferase) (mouse Probe ID 167200_r_at) (mouse, in vivo)
1.9: Fold Change, signal transducer and activator of transcription 1 (mouse Probe ID 114635_at) [1]
1.2: Fold Change, cathepsin C (mouse Probe ID 161251_f_at) [2] | Fold Change, serine (or cysteine) proteinase inhibitor, clade B (ovalbumin), member 2 (mouse Probe ID 137166_r_at) [2] | Fold Change, neutrophil cytosolic factor 2 (mouse Probe ID 102326_at) [3]
